In patent US20210139467A1 (GLAXOSMITHKLINE INTELLECTUAL PROPERTY DEVELOPMENT LIMITED, priority 2017, published 2021):

What follows are molecules tested against IDO1 (Homo sapiens, UniProt P14902) (assay: IDO1 PBMC RapidFire MS Assay). Details: human PBMC stimulated with IFN-γ and LPS; kynurenine detected by mass spectrometry; 2 days; read-out: IDO1 PBMC pIC50 (converted).
Assay type: cell-based
Design: stimulated with human interferon-γ (IFN-γ); host or cells: human PBMC stimulated with IFN-gamma and LPS
Procedure: IDO1 PBMC RapidFire MS Assay
Compounds of the present invention were tested via high-throughput cellular assays utilizing detection of kynurenine via mass spectrometry and cytotoxicity as end-points. For the mass spectrometry and cytotoxicity assays, human peripheral blood mononuclear cells (PBMC) (PB003F; AllCells®, Alameda, Calif.) were stimulated with human interferon-γ (IFN-γ) (Sigma-Aldrich Corporation, St. Louis, Mo.) and lipopolysaccharide from Salmonella minnesota (LPS) (Invivogen, San Diego, Calif.) to induce the expression of indoleamine 2, 3-dioxygenase (IDO1). Compounds with IDO1 inhibitory properties decreased the amount of kynurenine produced by the cells via the tryptophan catabolic pathway. Cellular toxicity due to the effect of compound treatment was measured using CellTiter-Glo® reagent (CTG) (Promega Corporation, Madison, Wis.), which is based on luminescent detection of ATP, an indicator of metabolically active cells.
In preparation for the assays, test compounds were serially diluted 3-fold in DMSO from a typical top concentration of 1 mM or 5 mM and plated at 0.5 μL in 384-well, polystyrene, clear bottom, tissue culture treated plates with lids (Greiner Bio-One, Kremsmünster, Austria) to generate 11-point dose response curves. Low control wells (0% kynurenine or 100% cytotoxicity) contained either 0.5 μL of DMSO in the presence of unstimulated (−IFN-γ/-LPS) PBMCs for the mass spectrometry assay or 0.5 μL of DMSO in the absence of cells for the cytotoxicity assay, and high control wells (100% kynurenine or 0% cytotoxicity) contained 0.5 μL of DMSO in the presence of stimulated (+IFN-γ/+LPS) PBMCs for both the mass spectrometry and cytotoxicity assays.
Frozen stocks of PBMCs were washed and recovered in RPMI 1640 medium (Thermo Fisher Scientific, Inc., Waltham, Mass.) supplemented with 10% v/v heat-inactivated fetal bovine serum (FBS) (Thermo Fisher Scientific, Inc., Waltham, Mass.), and 1× penicillin-streptomycin antibiotic solution (Thermo Fisher Scientific, Inc., Waltham, Mass.). The cells were diluted to 1,000,000 cells/mL in the supplemented RPMI 1640 medium. 50 μL of either the cell suspension, for the mass spectrometry assay, or medium alone, for the cytotoxicity assay, were added to the low control wells, on the previously prepared 384-well compound plates, resulting in 50,000 cells/well or 0 cells/well respectively. IFN-γ and LPS were added to the remaining cell suspension at final concentrations of 100 ng/ml and 50 ng/ml respectively, and 50 μL of the stimulated cells were added to all remaining wells on the 384-well compound plates. The plates, with lids, were then placed in a 37° C., 5% CO2 humidified incubator for 2 days.
Following incubation, the 384-well plates were removed from the incubator and allowed to equilibrate to room temperature for 30 minutes. For the cytotoxicity assay, CellTiter-Glo® was prepared according to the manufacturer's instructions, and 40 μL were added to each plate well. After a twenty minute incubation at room temperature, luminescence was read on an EnVision® Multilabel Reader (PerkinElmer Inc., Waltham, Mass.). For the mass spectrometry assay, 10 μL of supernatant from each well of the compound-treated plates were added to 40 μL of acetonitrile, containing 10 μM of an internal standard for normalization, in 384-well, polypropylene, V-bottom plates (Greiner Bio-One, Kremsmünster, Austria) to extract the organic analytes. Following centrifugation at 2000 rpm for 10 minutes, 10 μL from each well of the acetonitrile extraction plates were added to 90 μL of sterile, distilled H2O in 384-well, polypropylene, V-bottom plates for analysis of kynurenine and the internal standard on the RapidFire 300 (Agilent Technologies, Santa Clara, Calif.) and 4000 QTRAP MS (SCIEX, Framingham, Mass.). MS data were integrated using Agilent Technologies' RapidFire Integrator software, and data were normalized for analysis as a ratio of kynurenine to the internal standard. […]

IDO1, sequence (P14902 whole entry): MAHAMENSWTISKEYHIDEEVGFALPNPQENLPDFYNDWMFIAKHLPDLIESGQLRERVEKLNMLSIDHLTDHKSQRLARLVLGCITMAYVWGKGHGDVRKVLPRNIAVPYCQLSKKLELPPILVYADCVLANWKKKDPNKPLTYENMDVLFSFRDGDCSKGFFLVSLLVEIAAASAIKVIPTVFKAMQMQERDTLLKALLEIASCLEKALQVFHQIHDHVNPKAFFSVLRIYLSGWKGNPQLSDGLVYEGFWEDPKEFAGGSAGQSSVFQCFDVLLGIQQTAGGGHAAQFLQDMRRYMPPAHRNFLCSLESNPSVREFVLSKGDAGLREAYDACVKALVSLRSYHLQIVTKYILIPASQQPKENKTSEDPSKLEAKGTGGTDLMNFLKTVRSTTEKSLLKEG

| SMILES | IC50 [nM] |
| --- | --- |
| CC(C)CN(c1ccc(C2(C(=O)NS(C)(=O)=O)CC2)cc1Nc1nnc(C2CC2)s1)C1CCOCC1 [Example 19, 1-(3-((5-cyclopropyl-1,3,4-thiadiazol-2-yl)amino)-4-(isobutyl(tetrahydro-2H-pyran-4-yl)amino)phenyl)-N-(methylsulfonyl)cyclopropane-1-carboxamide] | 5.01 |
| CC(C)CN(CC(C)C)c1ccc(C(C)(C)C(=O)O)cc1Nc1ccc(Cl)cn1 [Example 12, 2-(3-((5-chloropyridin-2-yl)amino)-4-(diisobutylamino)phenyl)-2-methylpropanoic acid] | 25.1 |
| CC(C)CN(c1cnc(C2(C(=O)O)CC2)cc1Nc1ccc(Cl)cn1)C1CCOCC1 [Example 25] | 50.1 |
| CC(C)CN(c1ncc(C(C)(C)C(=O)O)cc1Nc1ccc(Cl)cn1)C1CCOCC1 [Example 6, 2-(5-((5-chloropyridin-2-yl)amino)-6-(isobutyl(tetrahydro-2H-pyran-4-yl)amino)pyridin-3-yl)-2-methylpropanoic acid] | 6.31 |
| CC(C)CN(c1ccc(C2(C(=O)NS(C)(=O)=O)CC2)cc1Nc1cnc(C(N)=O)nc1)C1CCOCC1 [Example 22] | > 10000 |
| CC(C)CN(c1ncc(C2(C(=O)NS(=O)(=O)C(F)(F)F)CC2)cc1Nc1ccc(Cl)cn1)C1CCOCC1 [Example 11, 1-(5-((5-chloropyridin-2-yl)amino)-6-(isobutyl(tetrahydro-2H-pyran-4-yl)amino)pyridin-3-yl)-N-((trifluoromethyl)sulfonyl)cyclopropane-1-carboxamide] | 31.6 |
| CC(C)CN(c1ccc(C(C)(C)C(=O)O)nc1Nc1ccc(Cl)cn1)C1CCOCC1 [Example 17, 2-(6-((5-chloropyridin-2-yl)amino)-5-(isobutyl(tetrahydro-2H-pyran-4-yl)amino)pyridin-2-yl)-2-methylpropanoic acid] | 6.31 |
| CC(C)CN(c1ncc(C2(C(=O)O)CC2)cc1Nc1ccc(Cl)cn1)C1CCOCC1 [Example 9, 1-(5-((5-chloropyridin-2-yl)amino)-6-(isobutyl(tetrahydro-2H-pyran-4-yl)amino)pyridin-3-yl)cyclopropane-1-carboxylic acid] | 7.94 |
| CC(C)CN(c1ncc(C(C)(C)C(=O)NS(=O)(=O)C(F)(F)F)cc1Nc1ccc(Cl)cn1)C1CCOCC1 [Example 8, 2-(5-((5-chloropyridin-2-yl)amino)-6-(isobutyl(tetrahydro-2H-pyran-4-yl)amino)pyridin-3-yl)-2-methyl-N-((trifluoromethyl)sulfonyl)propanamide] | 20 |
| CC(C)CN(c1ccc(C(C)(C)C(=O)NS(C)(=O)=O)nc1Nc1ccc(Cl)cn1)C1CCOCC1 [Example 18, 2-(6-((5-chloropyridin-2-yl)amino)-5-(isobutyl(tetrahydro-2H-pyran-4-yl)amino)pyridin-2-yl)-2-methyl-N-(methylsulfonyl)propanamide] | 3.16 |
| CC(C)CN(c1ncc(C(C)(C)C(=O)NS(C)(=O)=O)cc1Nc1ccc(Cl)cn1)C1CCOCC1 [Example 7, 2-(5-((5-chloropyridin-2-yl)amino)-6-(isobutyl(tetrahydro-2H-pyran-4-yl)amino)pyridin-3-yl)-2-methyl-N-(methylsulfonyl)propanamide] | 5.01 |
| CC(C)CN(CC(C)C)c1ccc(C(C)(C)C(=O)O)cc1Nc1nc(C(F)(F)F)ns1 [Example 13, 2-(4-(diisobutylamino)-3-((3-(trifluoromethyl)-1,2,4-thiadiazol-5-yl)amino)phenyl)-2-methylpropanoic acid] | 12.6 |
| CC(C)CN(c1ncc(C2(C(=O)NS(C)(=O)=O)CC2)cc1Nc1ccc(Cl)cn1)C1CCOCC1 [Example 10, 1-(5-((5-chloropyridin-2-yl)amino)-6-(isobutyl(tetrahydro-2H-pyran-4-yl)amino)pyridin-3-yl)-N-(methylsulfonyl)cyclopropane-1-carboxamide] | 5.01 |
| CC(C)CN(c1ccc(C2(C(=O)O)CC2)cc1Nc1ccc(Cl)cn1)C1CCOCC1 [Example 5, 1-(3-((5-chloropyridin-2-yl)amino)-4-(isobutyl(tetrahydro-2H-pyran-4-yl)amino)phenyl)cyclopropane-1-carboxylic acid] | 6.31 |
| CC(C)CN(c1ccc(C2(C(=O)NS(C)(=O)=O)CC2)cc1Nc1ccc(Cl)cn1)C1CCOCC1 [Example 4, 1-(3-((5-chloropyridin-2-yl)amino)-4-(isobutyl(tetrahydro-2H-pyran-4-yl)amino)phenyl)-N-(methylsulfonyl)cyclopropane-1-carboxamide] | 0.794 |
| CC(C)CN(c1ccc(C(C)(C)C(=O)O)cc1Nc1ccc(Cl)cn1)C1CCOCC1 [Example 1, 2-(3-((5-chloropyridin-2-yl)amino)-4-(isobutyl(tetrahydro-2H-pyran-4-yl)amino)phenyl)-2-methylpropanoic acid] | 3.16 |
| CC(C)CN(c1ccc(C(C)(C)C(=O)NS(=O)(=O)C(F)(F)F)cc1Nc1ccc(Cl)cn1)C1CCOCC1 [Example 3, 2-(3-((5-chloropyridin-2-yl)amino)-4-(isobutyl(tetrahydro-2H-pyran-4-yl)amino)phenyl)-2-methyl-N-((trifluoromethyl)sulfonyl)propanamide] | 20 |
| COCc1ccc(Nc2cc(C3(C(=O)NS(C)(=O)=O)CC3)ccc2N(CC(C)C)C2CCOCC2)cn1 [Example 21, 1-(4-(isobutyl(tetrahydro-2H-pyran-4-yl)amino)-3-((6-(methoxymethyl)pyridin-3-yl)amino)phenyl)-N-(methylsulfonyl)cyclopropane-1-carboxamide] | 39.8 |
| CC(C)CN(c1ccc(C2(C(=O)O)CC2)cc1Nc1nnc(C2CC2)s1)C1CCOCC1 [Example 14, 1-(3-((5-cyclopropyl-1,3,4-thiadiazol-2-yl)amino)-4-(isobutyl(tetrahydro-2H-pyran-4-yl)amino)phenyl)cyclopropane-1-carboxylic acid] | 15.8 |
| CC(C)CN(c1ccc(C(C)(C)C(=O)NS(C)(=O)=O)cc1Nc1ccc(Cl)cn1)C1CCOCC1 [Example 2, 2-(3-((5-chloropyridin-2-yl)amino)-4-(isobutyl(tetrahydro-2H-pyran-4-yl)amino)phenyl)-2-methyl-N-(methylsulfonyl)propanamide] | 1.58 |
| CC(C)CN(c1ccc(C2(C(=O)NS(C)(=O)=O)CC2)cc1Nc1cnc(C#N)nc1)C1CCOCC1 [Example 23] | 50.1 |
| COc1ncc(Nc2cc(C3(C(=O)NS(C)(=O)=O)CC3)ccc2N(CC(C)C)C2CCOCC2)cn1 [Example 20, 1-(4-(isobutyl(tetrahydro-2H-pyran-4-yl)amino)-3-((2-methoxypyrimidin-5-yl)amino)phenyl)-N-(methylsulfonyl)cyclopropane-1-carboxamide] | 12.6 |
